According to patent US9422283B2, “Salts and polymorphs of a substituted imidazopyridinyl-aminopyridine compound” (ArQule, Inc., priority 2014, dated 2016):
Values after ≈ are worked out from the molar mass of the structure shown. “Also recorded” adds a separate entry of the source. Counter-ions that a name gives are not always drawn. Like-named read-outs stand apart in the source and are kept apart here.

Tests used:
Format in all cases: physicochemical
[1] = Dynamic Vapour Sorption (DVS)
Protocol: Approximately 10 mg of sample was placed into a mesh vapour sorption balance pan and loaded into a DVS-1 dynamic vapour sorption balance by Surface Measurement Systems. The sample was subjected to a ramping profile of 0-90%, 90-0% relative humidity (RH) at 10% increments for anhydrous samples and 30-90%, 90-0%, 0-90%, 90-0% for hydrated samples, maintaining the sample at each step until a stable weight had been achieved (99.5% step completion). The weight changes during the sorption/desorption cycles were plotted, allowing the hygroscopic nature of the sample to be determined.

[2] = Stability testing of bis-mesylate forms for 1 week (XRPD, HPLC purity)
Protocol: Form A, Form B, Form C, Form D, Form E and Form I were exposed to environments of 40° C./75% RH, ambient light (about 22° C.) and elevated temperature (80° C.) for 1 week to determine the stability. The resulting solids were analyzed by XRPD to establish if any form changes had occurred and by HPLC to determine purity.

[3] = Aqueous solubility studies of bis-mesylate forms (slurry in deionised water, HPLC, XRPD)
Protocol: Purity and concentration analyses were carried out using the following method:
• Pan Number 186003045 Column Temperature: 25° C. Autosampler Temperature: 5° C. Detection: 226 nm Mobile Phase A: 95:5:0.1% Water:Methanol:TFA Mobile Phase B: 95:5:0.1% Methanol:Water:TFA Gradient: See table below for conditions Flow Rate: 1.0 mL/minute Injection Volume: 10 μl Analysis Time: 36 minutes Re-equilibration Time: 4 minutes Data Collection time: 36 minutes Needle Wash: 100% Methanol
Slurries of Form A, Form B, Form C, Form D, Form E and Form I were created in deionised water and shaken for about 24 hours at ambient temperature (about 22° C.). The resulting solutions were then analyzed by HPLC and the aqueous solubility was determined. The remaining solids were analyzed by XRPD to determine if any form changes had occurred during slurrying.

[4] = Solvent solubility screen by solvent addition technique; conditions: for observation in solubility screen: 40° C.; for solubility: 40 °C, thermodynamic from solid, amorphous input, read-out: Solubility (mg/mL) at 40° C.
Protocol: The amorphous form of Compound A bis-mesylate salt was used as the input material for the solubility screen. Solubility values were estimated by a solvent addition technique in order to provide approximate values for generating slurries during later experiments. Approximately 15 mg of amorphous material was weighed out into 24 vials. Each solvent was added to the appropriate vial in 10 aliquots of 10 μl, 5 aliquots of 20 μl, 3 aliquots of 100 μl and 1 aliquot of 500 μl or until the material dissolved. In between additions, the sample was heated to 40° C. To vials which already contained 1000 μl of solvent but still had observable solid material, a further aliquot of 1000 μl of solvent was added. If 2000 μl of solvent was added without dissolution of the solid, solubility was calculated to be below this point.

[5] = about 24 hours, ambient temperature

Nc1ncccc1-c1nc2ccc(-c3ccccc3)nc2n1-c1ccc(C2(N)CCC2)cc1 [Form A, 3-(3-(4-(1-aminocyclobutyl)phenyl)-5-phenyl-3H-imidazo[4,5-b]pyridin-2-yl)pyridin-2-amine]
DVS (summary Table 21) [1]: Moderately
DVS desorption behaviour / hysteresis [1]: No significant hysteresis
hygroscopicity (DVS) [1]: moderate hygroscopicity
polymorphic form after DVS analysis (XRPD) [1]: consistent with Form A; also recorded: Form A post
DVS water uptake ([1]; up to 70% RH): about 2.4%
HPLC purity after stability test ([2]; 40° C./75% RH): about 99.8%
polymorphic form after stability test (XRPD) ([2]; 40° C./75% RH): No change
HPLC purity after stability test ([2]; 80° C.): about 99.8%
polymorphic form after stability test (XRPD) ([2]; 80° C.): No change
polymorphic form after stability test (XRPD) ([2]; ambient light (about 22° C.)): No change
HPLC purity after stability test ([2]; ambient temperature): about 99.7%
polymorphic form after slurrying in deionised water (XRPD) [3, 5]: converted to Form E
solubility at 24 h ([3]; deionised water, 22 °C, water, thermodynamic from solid, deionised water, about 24 hours, ambient temperature (about 22° C.); read-out: aqueous solubility (HPLC concentration analysis)): ~383000 µg/mL (≈ 886 mM)

Nc1ncccc1-c1nc2ccc(-c3ccccc3)nc2n1-c1ccc(C2(N)CCC2)cc1 [Form E, 3-(3-(4-(1-aminocyclobutyl)phenyl)-5-phenyl-3H-imidazo[4,5-b]pyridin-2-yl)pyridin-2-amine]
DVS (summary Table 21) [1]: Two hydration
DVS desorption behaviour / hysteresis [1]: dehydration occurred below 10% RH
hygroscopicity (DVS) [1]: non-hygroscopic
polymorphic form after DVS analysis (XRPD) [1]: RH Form E post
DVS water uptake ([1]; second sorption cycle, below 20% RH): about 2.78%
DVS further water uptake ([1]; second sorption cycle, between 20% and 40% RH): 5.5%
HPLC purity after stability test ([2]; 40° C./75% RH): about 99.8%
polymorphic form after stability test (XRPD) ([2]; 40° C./75% RH): remained unchanged
HPLC purity after stability test ([2]; 80° C.): about 99.8%
polymorphic form after stability test (XRPD) ([2]; 80° C.): some differences were observed
polymorphic form after stability test (XRPD) ([2]; ambient light (about 22° C.)): remained unchanged
HPLC purity after stability test ([2]; ambient temperature): about 99.7%
solubility at 24 h ([3]; 22 °C, water, thermodynamic from solid, deionised water, about 24 hours, ambient temperature (about 22° C.); read-out: aqueous solubility (HPLC concentration analysis)): ~347000 µg/mL (≈ 802 mM)
polymorphic form after slurrying in deionised water (XRPD) [3, 5]: remained unchanged; also recorded: Form E

Nc1ncccc1-c1nc2ccc(-c3ccccc3)nc2n1-c1ccc(C2(N)CCC2)cc1 [Form C, 3-(3-(4-(1-aminocyclobutyl)phenyl)-5-phenyl-3H-imidazo[4,5-b]pyridin-2-yl)pyridin-2-amine]
DVS (summary Table 21) [1]: Non-hygroscopic
hygroscopicity (DVS) [1]: non-hygroscopic
polymorphic form after DVS analysis (XRPD) [1]: consistent with Form C; also recorded: Form C post
DVS total water uptake ([1]; up to 90% RH): about 0.54%
HPLC purity after stability test ([2]; 40° C./75% RH): about 99.9%
polymorphic form after stability test (XRPD) ([2]; 40° C./75% RH): No change
HPLC purity after stability test ([2]; 80° C.): about 99.9%
polymorphic form after stability test (XRPD) ([2]; 80° C.): No change
polymorphic form after stability test (XRPD) ([2]; ambient light (about 22° C.)): No change
HPLC purity after stability test ([2]; ambient temperature): about 99.9%
polymorphic form after slurrying in deionised water (XRPD) [3, 5]: converted to Form E

Nc1ncccc1-c1nc2ccc(-c3ccccc3)nc2n1-c1ccc(C2(N)CCC2)cc1 [Form B, 3-(3-(4-(1-aminocyclobutyl)phenyl)-5-phenyl-3H-imidazo[4,5-b]pyridin-2-yl)pyridin-2-amine]
DVS (summary Table 21) [1]: Gradual uptake
DVS desorption behaviour / hysteresis [1]: gradual loss from 90% down to 0% RH
HPLC purity after stability test ([2]; 40° C./75% RH): about 99.8%
polymorphic form after stability test (XRPD) ([2]; 40° C./75% RH): converted to Form J
HPLC purity after stability test ([2]; 80° C.): about 99.8%
polymorphic form after stability test (XRPD) ([2]; 80° C.): Form I
polymorphic form after stability test (XRPD) ([2]; ambient light (about 22° C.)): remained unchanged
HPLC purity after stability test ([2]; ambient temperature): about 99.7%
polymorphic form after slurrying in deionised water (XRPD) [3, 5]: converted to Form E

Nc1ncccc1-c1nc2ccc(-c3ccccc3)nc2n1-c1ccc(C2(N)CCC2)cc1 [Compound A bis-mesylate salt, 3-(3-(4-(1-aminocyclobutyl)phenyl)-5-phenyl-3H-imidazo[4,5-b]pyridin-2-yl)pyridin-2-amine]
observation in solubility screen ([4]; 1,4-Dioxane): Colourless solution
observation in solubility screen ([4]; 2-Methyl THF): Colourless solution
observation in solubility screen ([4]; 2-Propanol): Good solubility
observation in solubility screen ([4]; 2-Propanol:water (50:50)): Good solubility
solubility ([4]; aqueous with cosolvent or surfactant or cyclodextrin, 2-Propanol:water (50:50)): ~400 mg/mL
solubility ([4]; organic solvent or mixture, 1,4-Dioxane): < 8 mg/mL
solubility ([4]; organic solvent or mixture, 1-Butanol): < 8 mg/mL
solubility ([4]; organic solvent or mixture, 2-Ethoxyethanol): < 8 mg/mL
solubility ([4]; organic solvent or mixture, 2-Methyl THF): < 8 mg/mL
solubility ([4]; organic solvent or mixture, 2-Propanol): ~25 mg/mL
solubility ([4]; organic solvent or mixture, Acetone:water (90:10)): ~16 mg/mL
solubility ([4]; organic solvent or mixture, Acetone): < 8 mg/mL
solubility ([4]; organic solvent or mixture, Acetonitrile): < 8 mg/mL
solubility ([4]; organic solvent or mixture, Cyclohexane): < 8 mg/mL
solubility ([4]; organic solvent or mixture, Dichloromethane): < 8 mg/mL
solubility ([4]; organic solvent or mixture, Diisopropyl ether): < 8 mg/mL
solubility ([4]; organic solvent or mixture, Dimethylsulfoxide): ~126 mg/mL
solubility ([4]; organic solvent or mixture, Ethanol): < 8 mg/mL
solubility ([4]; organic solvent or mixture, Ethyl acetate): < 8 mg/mL
solubility ([4]; organic solvent or mixture, Heptane): < 8 mg/mL
solubility ([4]; organic solvent or mixture, Isopropyl acetate): < 8 mg/mL
solubility ([4]; organic solvent or mixture, Methanol): ~40 mg/mL
solubility ([4]; organic solvent or mixture, Methylethyl ketone): < 8 mg/mL
solubility ([4]; organic solvent or mixture, Methylisobutyl ketone): < 8 mg/mL
solubility ([4]; organic solvent or mixture, Tetrahydrofuran): < 8 mg/mL
solubility ([4]; organic solvent or mixture, Toluene): < 8 mg/mL
solubility ([4]; organic solvent or mixture, tert-Butylmethyl ether): < 8 mg/mL
solubility ([4]; Water): ~769 mg/mL
observation in solubility screen ([4]; Acetone:water (90:10)): Good solubility
observation in solubility screen ([4]; Cyclohexane): Colourless solution
observation in solubility screen ([4]; Dichloromethane): Colourless solution
observation in solubility screen ([4]; Diisopropyl ether): Colourless solution
observation in solubility screen ([4]; Dimethylsulfoxide): Good solubility
observation in solubility screen ([4]; Heptane): Colourless solution
observation in solubility screen ([4]; Isopropyl acetate): Colourless solution
observation in solubility screen ([4]; Methanol): Good solubility
observation in solubility screen ([4]; Methylethyl ketone): Colourless solution
observation in solubility screen ([4]; Methylisobutyl ketone): Colourless solution
observation in solubility screen ([4]; Toluene): Colourless solution
observation in solubility screen ([4]; Water): Good solubility
observation in solubility screen ([4]; tert-Butylmethyl ether): Colourless solution
